Active and inactive are the calls of the source.
Columns and labels:
HeLa = experiment: Cytotoxicity counterscreen assay for transcriptional activators of heat shock protein 70 (Hsp70). [Related pubchem assays: 1203, 1252 ]; assay type: functional; details: Homo sapiens;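 also: cells exposed to compound for 16 hours before readout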
[1] = cytotoxicity in HPDE-C7 cells, cell-based, fluorescence, HTS (AID 430); assay type: functional; details: Homo sapiens
[2] = cytotoxicity in KRAS-transformed pancreatic duct cells, primary screen, cell-based, fluorescence, HTS (AID 431); assay type: functional; details: Homo sapiens;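 also: cell line used: HPDE-C7K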
[3] = Luminescence-based cell-based high throughput dose response assay to identify activators of the DAF-12 from the parasite S. stercoralis (ssDAF-12).; assay type: functional
Danio rerio = experiment: In Vivo Angiogenesis Dose-Response Confirmation. [Related pubchem assays: 732 (Assay preceding this confirmatory assay.)]; assay type: functional, organism-based
Cytochrome P450 3A4 = Cytochrome P450 3A4 (Homo sapiens, UniProt P08684);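 also: CYP3A4 tested as one member of a cytochrome P450 panel screen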
[4] = Luminescence Cell-Based Dose Retest to Confirm Inhibitors of Cancer Stem Cells. [Related pubchem assays (depositor defined):AID2717, AID2721]; assay type: functional; details: Homo sapiens
Leucine aminopeptidase = target: T1, Leucine aminopeptidase (Plasmodium falciparum 3D7, UniProt Q8IL11); experiment: P. falciparum M17LAP inhibitors, primary screen, biochemical, fluorogenic H-Leu-NHMec substrate, 1536-well (AID 1619); assay type: functional
T1 sequence (Q8IL11 whole entry): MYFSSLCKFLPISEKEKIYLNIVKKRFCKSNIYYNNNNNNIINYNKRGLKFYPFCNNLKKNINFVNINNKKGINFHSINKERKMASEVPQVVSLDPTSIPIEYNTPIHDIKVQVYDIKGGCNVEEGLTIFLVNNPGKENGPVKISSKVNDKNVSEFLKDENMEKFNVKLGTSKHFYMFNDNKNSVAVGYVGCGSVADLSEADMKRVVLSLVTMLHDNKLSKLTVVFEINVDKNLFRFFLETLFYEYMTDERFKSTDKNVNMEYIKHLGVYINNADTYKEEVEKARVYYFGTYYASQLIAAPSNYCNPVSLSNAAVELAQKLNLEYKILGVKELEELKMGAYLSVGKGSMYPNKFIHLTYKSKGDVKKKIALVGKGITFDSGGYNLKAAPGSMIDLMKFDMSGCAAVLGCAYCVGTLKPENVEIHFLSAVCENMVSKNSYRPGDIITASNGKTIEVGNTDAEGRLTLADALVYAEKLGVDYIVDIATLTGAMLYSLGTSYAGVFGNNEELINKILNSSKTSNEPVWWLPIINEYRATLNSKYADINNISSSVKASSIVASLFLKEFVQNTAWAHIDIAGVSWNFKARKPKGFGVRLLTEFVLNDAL

Aspartyl aminopeptidase = Aspartyl aminopeptidase (Plasmodium falciparum 3D7, UniProt Q8I2J3); experiment: Counterscreen for inhibitors of M1 and M17 aminopeptidases: QFRET-based biochemical high throughput dose response assay for inhibitors of the Plasmodium falciparum M18 Aspartyl Aminopeptidase (PFM18AAP). [Related PubChem assays: 1619 (Screening assay (M17LAP inhibitors).), 1445 (Screening assay (M1AAP inhibitors).)]
Aspartyl aminopeptidase, sequence (Q8I2J3 whole entry): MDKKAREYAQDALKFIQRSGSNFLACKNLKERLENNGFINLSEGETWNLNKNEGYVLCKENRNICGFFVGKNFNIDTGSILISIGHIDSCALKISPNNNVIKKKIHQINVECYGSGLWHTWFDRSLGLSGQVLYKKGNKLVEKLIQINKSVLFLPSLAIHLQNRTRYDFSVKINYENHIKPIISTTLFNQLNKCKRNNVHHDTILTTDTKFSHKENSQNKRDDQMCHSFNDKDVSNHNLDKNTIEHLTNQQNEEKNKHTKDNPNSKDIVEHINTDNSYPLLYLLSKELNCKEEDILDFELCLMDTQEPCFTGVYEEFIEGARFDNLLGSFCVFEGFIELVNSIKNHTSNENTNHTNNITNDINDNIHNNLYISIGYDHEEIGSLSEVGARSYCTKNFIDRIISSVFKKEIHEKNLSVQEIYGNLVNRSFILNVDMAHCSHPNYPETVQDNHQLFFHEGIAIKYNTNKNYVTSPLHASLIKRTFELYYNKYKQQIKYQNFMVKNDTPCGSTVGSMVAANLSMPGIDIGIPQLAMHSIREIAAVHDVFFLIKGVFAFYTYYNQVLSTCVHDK

[5] = A cytotoxicity screen of small molecule inhibitors of the PhoP region in Salmonella typhi identified in the primary screen. [Related pubchem assays: 1850, 1864, 1985 ]; assay type: functional
Procathepsin L = Procathepsin L (Homo sapiens, UniProt P07711); experiment: cathepsin L inhibitors, dose response, counter-screen for M1/M17 aminopeptidase inhibitor project, biochemical, QFRET, 1536-well (AID 2214)
Procathepsin L, sequence (P07711 whole entry): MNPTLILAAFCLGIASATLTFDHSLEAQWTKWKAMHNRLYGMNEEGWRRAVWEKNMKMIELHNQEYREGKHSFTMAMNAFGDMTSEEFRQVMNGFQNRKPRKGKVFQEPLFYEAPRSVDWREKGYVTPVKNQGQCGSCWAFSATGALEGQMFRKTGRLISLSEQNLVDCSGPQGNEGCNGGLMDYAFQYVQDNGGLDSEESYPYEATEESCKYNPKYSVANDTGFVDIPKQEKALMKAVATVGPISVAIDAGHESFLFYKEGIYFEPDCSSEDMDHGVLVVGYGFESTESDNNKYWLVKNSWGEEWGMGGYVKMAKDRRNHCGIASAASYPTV

[6] = cytotoxicity toward NIH3T3 fibroblasts, dose response, counter-screen, cell-based, ATP luminescence, mouse fibroblasts (AID 2010); assay type: functional;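 also: cells exposed to compound for about 90 hours before reading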
[7] = inhibitors of intracellular T. cruzi replication, confirmation, NIH3T3 host cells, beta-gal luminescence (AID 2044); assay type: functional, cell-based;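 also: intracellular parasites grown in NIH/3T3 mouse fibroblasts as host cells; luminescent beta-galactosidase reporter signal from transgenic T. cruzi replicating inside host cells; inhibitors lower the luminescence signal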
[8] = Luminescence Cell-Based Dose Response to Identify Activators of 5'UTR Stem-Loop Driven Prion Protein mRNA Translation in H4-C Neuroglioblastoma Cells. [Related pubchem assays: 1829 (Project Summary), 1814 (Primary HTS)]; assay type: functional
H4 = experiment: Luminescence Cell-Based Dose Response HTS to Identify Activators of 5'UTR Stem-Loop Driven Prion Protein mRNA Translation in H4 Neuroglioblastoma Cells. [Related pubchem assays: 1829 (Project Summary), 1814 (Primary HTS)]; assay type: functional; details: Homo sapiens
[9] = Luminescence Cell-Based Dose Response HTS to Identify Activators of Luciferase Translation or Activity in H4 […] Cells. [Related pubchem assays: 1829 (Project Summary), 1814 (Primary HTS)]; assay type: functional
[10] = Luminescence Cell-Based Dose Response to Identify Activators of Luciferase Translation or Activity in H4-C Neuroglioblastoma Cells. [Related pubchem assays: 1829 (Project Summary), 1814 (Primary HTS)]; assay type: functional
[11] = Luminescence Cell-Based Dose Confirmation to Identify Activators of 5'UTR Stem-Loop Driven Alpha-Synuclein mRNA Translation in H4 Neuroglioblastoma Cells. [Related pubchem assays: 1829 (Project Summary), 1814 (Primary HTS)]; assay type: functional
[12] = target: Aryl hydrocarbon receptor (Homo sapiens, UniProt P35869); experiment: Luminescence-based cell-based high throughput dose response assay for activators of the Aryl Hydrocarbon Receptor (AHR). [Related pubchem assays: 2796 (Primary screen (AHR activators in singlicate)), 2845 (Confirmation screen (AHR activators in triplicate)), 434939 (Counterscreen (PXR activators in triplicate)), 2804 (Summary (AHR activators))]; assay type: ADME
[13] = target: T2, Short transient receptor potential channel 4 (Mus musculus, UniProt Q9QUQ5); experiment: mouse TRPC4 channel inhibitors, dose response, cell-based, HEK293 TRPC4/mu-opioid, Fluo-4 calcium (AID 434942); assay type: functional;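 also: potency of inhibitors blocking the TRPC4 calcium response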
T2 sequence (Q9QUQ5 whole entry): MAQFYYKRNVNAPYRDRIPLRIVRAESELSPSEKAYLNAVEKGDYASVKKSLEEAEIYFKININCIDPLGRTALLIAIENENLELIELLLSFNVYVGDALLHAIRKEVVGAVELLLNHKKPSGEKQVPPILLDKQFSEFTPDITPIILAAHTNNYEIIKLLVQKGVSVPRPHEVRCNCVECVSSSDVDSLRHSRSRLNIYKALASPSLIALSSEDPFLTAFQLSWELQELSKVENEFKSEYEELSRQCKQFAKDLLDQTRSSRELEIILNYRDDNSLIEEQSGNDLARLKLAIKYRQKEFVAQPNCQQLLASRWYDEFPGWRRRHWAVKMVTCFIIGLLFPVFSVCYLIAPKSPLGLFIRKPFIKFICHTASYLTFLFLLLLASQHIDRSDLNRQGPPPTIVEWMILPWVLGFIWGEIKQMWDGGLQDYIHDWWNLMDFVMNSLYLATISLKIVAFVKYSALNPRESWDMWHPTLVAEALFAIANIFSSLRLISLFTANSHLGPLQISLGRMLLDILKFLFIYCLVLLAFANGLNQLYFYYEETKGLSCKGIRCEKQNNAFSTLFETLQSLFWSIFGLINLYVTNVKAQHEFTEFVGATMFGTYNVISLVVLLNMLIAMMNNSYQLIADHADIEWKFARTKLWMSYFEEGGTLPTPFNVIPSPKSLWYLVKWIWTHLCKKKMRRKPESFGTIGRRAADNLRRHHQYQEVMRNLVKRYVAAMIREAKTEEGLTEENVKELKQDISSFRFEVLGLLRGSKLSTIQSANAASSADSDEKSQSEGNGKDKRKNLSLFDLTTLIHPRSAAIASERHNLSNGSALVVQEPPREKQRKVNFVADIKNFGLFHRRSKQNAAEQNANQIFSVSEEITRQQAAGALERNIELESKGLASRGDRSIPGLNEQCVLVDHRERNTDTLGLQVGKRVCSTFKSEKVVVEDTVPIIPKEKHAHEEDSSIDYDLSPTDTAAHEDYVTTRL

[14] = target: Peroxisome proliferator-activated receptor gamma/Nuclear receptor coactivator 1 (Homo sapiens, UniProt P37231); assay type: functional;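 also: agonist potency as compounds enhance coactivator SRC-1 recruitment to PPARgamma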
Peroxisome proliferator-activated receptor gamma/Nuclear receptor coactivator 1, sequence (P37231 whole entry): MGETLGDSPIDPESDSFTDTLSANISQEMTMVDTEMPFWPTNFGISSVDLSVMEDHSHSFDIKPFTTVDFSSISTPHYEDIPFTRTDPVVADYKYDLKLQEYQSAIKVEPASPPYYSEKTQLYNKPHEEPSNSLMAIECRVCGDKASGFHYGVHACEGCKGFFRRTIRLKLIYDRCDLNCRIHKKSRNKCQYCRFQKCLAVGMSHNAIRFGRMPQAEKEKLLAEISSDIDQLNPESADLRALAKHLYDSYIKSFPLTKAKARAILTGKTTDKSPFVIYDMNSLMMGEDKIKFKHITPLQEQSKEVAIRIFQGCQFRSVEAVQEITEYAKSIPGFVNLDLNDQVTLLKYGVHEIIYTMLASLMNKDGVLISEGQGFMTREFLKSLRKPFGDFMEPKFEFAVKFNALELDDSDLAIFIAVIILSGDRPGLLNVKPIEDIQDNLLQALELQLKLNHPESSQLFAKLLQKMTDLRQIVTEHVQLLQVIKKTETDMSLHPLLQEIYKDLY
Peroxisome proliferator-activated receptor gamma/Nuclear receptor coactivator 1, sequence (Q15788 whole entry, further chain): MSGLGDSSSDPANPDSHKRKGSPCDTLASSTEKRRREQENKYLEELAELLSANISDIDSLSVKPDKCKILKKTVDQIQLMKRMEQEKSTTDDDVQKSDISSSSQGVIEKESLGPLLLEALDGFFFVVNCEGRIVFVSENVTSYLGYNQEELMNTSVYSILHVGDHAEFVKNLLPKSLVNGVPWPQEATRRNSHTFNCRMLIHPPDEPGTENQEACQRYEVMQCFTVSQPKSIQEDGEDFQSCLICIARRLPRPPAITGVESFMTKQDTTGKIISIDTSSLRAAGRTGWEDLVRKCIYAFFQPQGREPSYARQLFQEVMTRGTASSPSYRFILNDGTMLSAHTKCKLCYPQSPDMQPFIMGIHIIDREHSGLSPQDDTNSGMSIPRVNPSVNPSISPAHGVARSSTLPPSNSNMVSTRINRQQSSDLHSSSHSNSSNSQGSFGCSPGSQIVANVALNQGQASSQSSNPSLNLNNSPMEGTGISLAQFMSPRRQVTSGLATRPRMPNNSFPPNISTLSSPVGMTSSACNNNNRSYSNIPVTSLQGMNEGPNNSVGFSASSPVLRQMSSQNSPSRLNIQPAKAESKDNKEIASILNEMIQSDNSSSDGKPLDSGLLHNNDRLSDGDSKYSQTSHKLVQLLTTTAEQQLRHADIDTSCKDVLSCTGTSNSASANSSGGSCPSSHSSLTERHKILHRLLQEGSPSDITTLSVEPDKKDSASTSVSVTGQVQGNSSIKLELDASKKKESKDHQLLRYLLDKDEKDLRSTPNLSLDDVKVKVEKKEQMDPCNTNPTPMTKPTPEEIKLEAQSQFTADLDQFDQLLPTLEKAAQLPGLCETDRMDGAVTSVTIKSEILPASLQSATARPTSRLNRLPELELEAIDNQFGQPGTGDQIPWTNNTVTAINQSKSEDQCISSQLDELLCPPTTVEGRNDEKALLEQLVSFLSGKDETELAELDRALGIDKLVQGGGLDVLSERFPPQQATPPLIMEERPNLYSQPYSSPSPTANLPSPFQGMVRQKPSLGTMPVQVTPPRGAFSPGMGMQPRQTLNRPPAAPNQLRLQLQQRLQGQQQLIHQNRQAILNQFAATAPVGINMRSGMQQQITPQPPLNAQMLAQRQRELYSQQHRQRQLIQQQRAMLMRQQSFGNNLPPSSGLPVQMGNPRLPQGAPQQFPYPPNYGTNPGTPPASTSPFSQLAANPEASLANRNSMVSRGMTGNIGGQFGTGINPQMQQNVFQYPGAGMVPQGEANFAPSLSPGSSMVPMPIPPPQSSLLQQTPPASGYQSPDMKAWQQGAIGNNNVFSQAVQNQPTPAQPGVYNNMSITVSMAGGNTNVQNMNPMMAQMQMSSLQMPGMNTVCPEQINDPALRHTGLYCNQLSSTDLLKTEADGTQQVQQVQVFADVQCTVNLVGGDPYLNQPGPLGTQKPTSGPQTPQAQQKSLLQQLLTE

[15] = target: Peroxisome proliferator-activated receptor gamma/Nuclear receptor coactivator 3 (Homo sapiens, UniProt P37231); assay type: functional;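 also: agonist potency for raising coactivator recruitment to the receptor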
Peroxisome proliferator-activated receptor gamma/Nuclear receptor coactivator 3, sequence (P37231 whole entry): as the sequence (P37231 whole entry) above
Peroxisome proliferator-activated receptor gamma/Nuclear receptor coactivator 3, sequence (Q9Y6Q9 whole entry, further chain): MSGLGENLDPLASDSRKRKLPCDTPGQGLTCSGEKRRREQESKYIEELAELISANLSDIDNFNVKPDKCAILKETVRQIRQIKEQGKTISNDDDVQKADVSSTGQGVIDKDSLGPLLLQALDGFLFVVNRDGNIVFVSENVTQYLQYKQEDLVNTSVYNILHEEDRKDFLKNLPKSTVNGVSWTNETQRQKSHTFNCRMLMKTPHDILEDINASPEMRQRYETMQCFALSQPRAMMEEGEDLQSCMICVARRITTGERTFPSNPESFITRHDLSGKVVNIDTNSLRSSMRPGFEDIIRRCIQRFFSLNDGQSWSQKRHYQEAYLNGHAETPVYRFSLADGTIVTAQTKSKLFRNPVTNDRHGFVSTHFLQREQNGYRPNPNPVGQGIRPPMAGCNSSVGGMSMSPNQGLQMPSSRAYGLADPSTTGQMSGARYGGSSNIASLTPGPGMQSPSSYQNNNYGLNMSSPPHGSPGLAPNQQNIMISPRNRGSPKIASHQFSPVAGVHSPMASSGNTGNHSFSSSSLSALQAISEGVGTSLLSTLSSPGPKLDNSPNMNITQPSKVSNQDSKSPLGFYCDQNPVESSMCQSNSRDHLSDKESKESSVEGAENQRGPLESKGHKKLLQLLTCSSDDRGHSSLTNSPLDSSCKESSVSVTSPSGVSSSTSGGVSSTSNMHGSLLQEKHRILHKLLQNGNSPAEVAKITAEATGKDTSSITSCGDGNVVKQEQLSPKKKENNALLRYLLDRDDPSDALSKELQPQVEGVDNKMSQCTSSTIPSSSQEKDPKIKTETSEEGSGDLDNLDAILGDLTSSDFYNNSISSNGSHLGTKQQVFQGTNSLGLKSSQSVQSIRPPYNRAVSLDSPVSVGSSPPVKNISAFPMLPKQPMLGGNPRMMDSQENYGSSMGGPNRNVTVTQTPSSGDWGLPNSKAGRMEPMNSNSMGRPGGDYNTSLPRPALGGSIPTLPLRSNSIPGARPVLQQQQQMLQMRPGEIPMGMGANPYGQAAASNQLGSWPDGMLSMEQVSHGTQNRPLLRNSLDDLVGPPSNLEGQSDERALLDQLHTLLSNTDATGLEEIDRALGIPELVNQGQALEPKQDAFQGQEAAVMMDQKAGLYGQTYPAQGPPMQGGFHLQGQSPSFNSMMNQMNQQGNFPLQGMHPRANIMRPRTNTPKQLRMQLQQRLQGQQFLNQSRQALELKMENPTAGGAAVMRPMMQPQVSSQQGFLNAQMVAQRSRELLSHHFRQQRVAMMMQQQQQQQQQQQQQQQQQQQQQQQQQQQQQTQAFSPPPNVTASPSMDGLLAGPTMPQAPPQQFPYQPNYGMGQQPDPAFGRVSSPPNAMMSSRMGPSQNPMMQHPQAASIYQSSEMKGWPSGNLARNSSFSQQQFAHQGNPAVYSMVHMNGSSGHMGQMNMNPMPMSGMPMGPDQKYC

[16] = target: Peroxisome proliferator-activated receptor gamma/Nuclear receptor coactivator 2 (Homo sapiens, UniProt P37231); assay type: functional;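 also: agonist potency for raising coactivator recruitment to the receptor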
INS1 = experiment: beta cell apoptosis inhibitors, cytokine rescue, dose response, luminescence, retest (AID 449756); assay type: functional, cell-based; details: Rattus norvegicus;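 also: cell death triggered by IL-1 beta plus TNF-alpha plus IFN-gamma mixture; protective hits raise ATP signal compared with cytokine alone wells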
[17] = target: T3, Ubiquitin-conjugating enzyme E2 N (Homo sapiens, UniProt P61088); assay type: functional;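 also: Dose-response confirmation in a TR-FRET assay detecting UBC13-driven polyubiquitin chain formation, inhibition measured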
T3 sequence (P61088 whole entry): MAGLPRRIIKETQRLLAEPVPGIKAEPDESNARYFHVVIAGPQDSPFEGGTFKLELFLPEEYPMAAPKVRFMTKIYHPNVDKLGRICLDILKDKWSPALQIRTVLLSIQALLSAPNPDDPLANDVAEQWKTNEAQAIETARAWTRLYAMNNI

[18] = target: Heat shock protein HSP 90-alpha (Homo sapiens, UniProt P07900); experiment: Luminescence-based dose response biochemical high throughput screening assay for inhibitors of the Heat Shock Protein 90 (HSP90). [Related pubchem assays: 1831 (Summary AID.), 1846 (Confirmation screen.), 1789 (Primary screen.)]
[19] = target: T4, Calpain-2 catalytic subunit (Sus scrofa, UniProt P43367); experiment: pig calpain II inhibitor potency, dose response, biochemical, fluorogenic peptide substrate (AID 1420); assay type: functional
T4 sequence (P43367 whole entry): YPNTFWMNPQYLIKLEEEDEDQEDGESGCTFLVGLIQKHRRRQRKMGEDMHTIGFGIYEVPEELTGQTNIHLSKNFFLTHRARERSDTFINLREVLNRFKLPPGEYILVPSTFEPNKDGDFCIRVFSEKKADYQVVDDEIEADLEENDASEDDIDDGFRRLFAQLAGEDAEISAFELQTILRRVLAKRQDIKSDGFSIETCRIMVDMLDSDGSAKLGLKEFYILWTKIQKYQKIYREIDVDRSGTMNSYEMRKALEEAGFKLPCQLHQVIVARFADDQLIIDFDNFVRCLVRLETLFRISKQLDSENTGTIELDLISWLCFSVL

[20] = target: Transitional endoplasmic reticulum ATPase (Homo sapiens, UniProt P55072); experiment: p97 ATPase inhibitors, dose response, biochemical (AID 1534)
[21] = target: Transitional endoplasmic reticulum ATPase (Homo sapiens, UniProt P55072, C522A); experiment: C522A mutant p97 ATPase inhibitors, dose response, counter-screen for p97 inhibitor project, biochemical, luminescence (AID 1544)

CCOC(=O)c1sc2nc(C)nc(Nc3ccccc3)c2c1C
CC50 (HeLa): > 99 µM (not active)

Cc1ccc(S(=O)(=O)Nc2ccc3oc(=O)sc3c2)c(C)c1
EC50 [1]: 12.8 µM (active) | EC50 [2]: 13.7 µM (active)

O=c1c2ccccc2nc2n1CCc1c-2[nH]c2ccccc12 [RUTAECARPINE]
IC50 [3]: > 67.6 µM (inactive) | IC50 (Danio rerio): 25.5 µM (not active) | AC50 (Cytochrome P450 3A4): 3.98 µM (inconclusive) | AC50 [4]: 25.1 µM (active)

CCCCc1c(O)nc(SCC(=O)Nc2ccc3c(c2)CCC3)nc1O
IC50 (Leucine aminopeptidase): 7.61 µM (active) | IC50 (Aspartyl aminopeptidase): > 73.5 µM (not active) | EC50 [5]: > 50 µM (active) | IC50 (Procathepsin L): > 59.6 µM (not active)

COC(=O)c1ccc(CN2CCCC(CCC(=O)NCc3ccc(C)o3)C2)cc1 (stereo not given)
EC50 (cells): 0.113 µM (active) | EC50 [6]: > 60 µM (not active) | EC50 [7]: < 0.1 µM (active)

COc1ccccc1-c1nc(-c2ccc(Br)cc2)no1
EC50 [8]: 0.427 µM (active) | EC50 (H4): < 0.1 µM (active) | EC50 [9]: 0.217 µM (active) | EC50 [10]: 0.378 µM (active) | EC50 [11]: 0.34 µM (active)

Cc1cccc2c1NC(=O)/C2=C1\Nc2ccccc2\C1=N/O
IC50 (Danio rerio): 0.68 µM (active)

O=C(CN1CCOCC1)Nc1nc2ccc([N+](=O)[O-])cc2s1
EC50 [12]: 2.61 µM (active)

Cc1ccc(C)c2sc(NC(=O)C3CC3)nc12
EC50 [12]: 4.22 µM (active)

COc1cc(CN(C)CC2CCCN(CCc3ccccc3F)C2)cc(Cl)c1OC (stereo not given)
EC50 (cells): 0.263 µM (active) | EC50 [6]: 11.1 µM (active) | EC50 [7]: < 0.1 µM (active) | EC50 [13]: 3.35 µM (active)

CCOC(=O)c1sc2nccc(N(C)C)c2c1/N=C/N(C)C
EC50 [14]: > 79.4 µM (not active) | EC50 [15]: > 79.4 µM (not active) | EC50 [16]: > 79.4 µM (not active)

Cc1ccccc1Oc1ccc(NC(=O)C2CC=CCC2C(=O)O)cc1 (stereo not given)
IC50 (Leucine aminopeptidase): 1.33 µM (active) | IC50 (Aspartyl aminopeptidase): > 73.5 µM (not active) | IC50 (Procathepsin L): > 59.6 µM (not active)

CC(C)(C)c1cc(NCCCn2ccnc2)n2ncc(-c3ccccc3)c2n1
EC50 [8]: 1.27 µM (active) | EC50 (H4): > 120 µM (not active) | EC50 [9]: < 0.1 µM (active) | EC50 [10]: 0.377 µM (active) | EC50 [11]: 0.735 µM (active) | AC50 (INS1): 11 µM (active) | IC50 [17]: > 20 µM (inactive)

Cc1[nH]n(-c2ccccc2)c(=O)c1N=Nc1ccc(C(N)=O)cc1
IC50 [18]: 20.9 µM (not active)

CCN1C(=O)CS/C1=N/C1C2CC3CC(C2)CC1C3 (stereo not given)
EC50 [1]: > 20 µM (not active) | EC50 [2]: 11.4 µM (active)

CCc1cc2c(=O)c(-c3nc(C)cs3)coc2cc1OC(C)C(=O)NCCO (stereo not given)
EC50 [14]: > 79.4 µM (not active) | IC50 [19]: 3.22 µM (not active) | EC50 [15]: > 79.4 µM (not active) | EC50 [16]: > 79.4 µM (not active)

COCC(=O)Nc1cccc(Br)c1
CC50 (HeLa): > 99 µM (not active)

Cc1no[n+]([O-])c1COc1ccccc1/C=C1\NC(=S)NC1=O
IC50 [20]: > 50 µM (not active) | IC50 [21]: > 50 µM (not active)

COC(=O)c1ccc(N/C=C/C(=O)c2ccccc2)cc1
IC50 [18]: 3.73 µM (active)

— ChEMBL document CHEMBL1201862, “PubChem BioAssay data set” (2004)
